Reference: the supplement of paper PMC9663587

Experiments:
[1] = compound: CCN1CCN(Cc2ccc(Nc3ncc(F)c(-c4cc(F)c5nc(C)n(C(C)C)c5c4)n3)nc2)CC1; assay: increase in dead-cell fraction, 72 h; higher = more death;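 note: breast cancer cell lines in 384-well plates, stained with Hoechst plus LIVE/DEAD far red dye and imaged, cells above an LDR intensity threshold counted dead, Hoechst-negative corpses included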
[2] = compound: C=CC(=O)Nc1ccc(C(=O)Nc2[nH]nc3c2CN(C(=O)N[C@H](CN(C)C)c2ccccc2)C3(C)C)cc1 [YKL-5-124]; assay: as above
[3] = compound: CC(=O)c1c(C)c2cnc(Nc3ccc(N4CCN(CCOCCOCCOCCNC(=O)COc5cccc6c5C(=O)N(C5CCC(=O)NC5=O)C6=O)CC4)cn3)nc2n(C2CCCC2)c1=O [BSJ-03-123]; assay: as above
[4] = compound: CCOc1cc2ncc(C#N)c(Nc3ccc(OCc4ccccn4)c(Cl)c3)c2cc1NC(=O)/C=C/CN(C)C [Neratinib/HKI272]; assay: as above
[5] = compound: CN(C)C(=O)c1cc2cnc(Nc3ccc(N4CCNCC4)cn3)nc2n1C1CCCC1 [LEE011/Ribociclib]; assay: as above
[6] = compound: CN1CC[C@H](c2c(O)cc(O)c3c(=O)cc(-c4ccccc4Cl)oc23)[C@H](O)C1 [Flavopiridol]; assay: as above
[7] = compound: CN(C)C/C=C/C(=O)Nc1ccc(C(=O)Nc2cccc(Nc3ncc(Cl)c(-c4c[nH]c5ccccc45)n3)c2)cc1 [THZ1]; assay: as above
[8] = compound: CN(C)C/C=C/C(=O)Nc1ccc(C(=O)N2CCC[C@@H](Nc3ncc(Cl)c(-c4c[nH]c5ccccc45)n3)C2)cc1 [THZ531]; assay: as above
[9] = compound: CCc1cnn2c(NCc3ccc[n+]([O-])c3)cc(N3CCCC[C@H]3CCO)nc12; assay: as above
[10] = compound: CC(=O)c1c(C)c2cnc(Nc3ccc(N4CCNCC4)cn3)nc2n(C2CCCC2)c1=O; assay: as above
[11] = compound: CCNC(=O)c1noc(-c2cc(C(C)C)c(O)cc2O)c1-c1ccc(CN2CCOCC2)cc1 [Luminespib/NVP-AUY922]
[12] = compound: CN1CCN(CCOc2cc(OC3CCOCC3)c3c(Nc4c(Cl)ccc5c4OCO5)ncnc3c2)CC1 [Saracatinib/AZD0530]
[13] = compound: CN(C)C/C=C/C(=O)Nc1ccc(O[C@@H]2CCC[C@@H](Nc3ncc(Cl)c(-c4c[nH]c5ccccc45)n3)C2)cc1 [BSJ-01-175]
[14] = compound: CN(C)C/C=C/C(=O)NC1=CC=C(C=C1)C(=O)NC2=CC=CC(=C2)NC3=NC=NC(=C3)C4=CNC5=CC=CC=C54 [THZ-P1-2]
[15] = compound: Cc1cc(Nc2ncc(Cl)c(Nc3ccccc3S(=O)(=O)C(C)C)n2)c(OC(C)C)cc1C1CCNCC1 [Ceritinib/LDK378]
[16] = compound: CCCCOc1c(C(=O)c2c(F)cc(C)cc2F)c[nH]c2nncc1-2
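Throughout, for GR50, 72 h: breast cancer and non-malignant breast epithelial cell lines, Deep Dye Drop or Dye Drop imaging, nine half-log doses, GR normalized to time-zero plates and DMSO-only controls.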

SUM190PT
increase in dead-cell fraction ([1]; 0.001 µM): 0.001
increase in dead-cell fraction ([1]; 0.003162 µM): 0.0059
increase in dead-cell fraction ([1]; 0.01 µM): 0.0009
increase in dead-cell fraction ([1]; 0.03162 µM): 0.0041
increase in dead-cell fraction ([1]; 0.1 µM): 0.0078
increase in dead-cell fraction ([1]; 0.3162 µM): 0.0015
increase in dead-cell fraction ([1]; 1 µM): -0.0004
increase in dead-cell fraction ([1]; 3.162 µM): 0.0076
increase in dead-cell fraction ([1]; 10 µM): 0.32
increase in dead-cell fraction ([2]; 0.001 µM): 0.0072
increase in dead-cell fraction ([2]; 0.003162 µM): 0.0099
increase in dead-cell fraction ([2]; 0.01 µM): 0.0098
increase in dead-cell fraction ([2]; 0.03162 µM): 0.0132
increase in dead-cell fraction ([2]; 0.1 µM): 0.005
increase in dead-cell fraction ([2]; 0.3162 µM): 0.0169
increase in dead-cell fraction ([2]; 1 µM): 0.0033
increase in dead-cell fraction ([2]; 3.162 µM): 0.0008
increase in dead-cell fraction ([2]; 10 µM): 0.244
increase in dead-cell fraction ([3]; 0.001 µM): 0.0016
increase in dead-cell fraction ([3]; 0.003162 µM): -0.0004
increase in dead-cell fraction ([3]; 0.01 µM): 0.0082
increase in dead-cell fraction ([3]; 0.03162 µM): 0.018
increase in dead-cell fraction ([3]; 0.1 µM): 0.0114
increase in dead-cell fraction ([3]; 0.3162 µM): 0.0142
increase in dead-cell fraction ([3]; 1 µM): 0.0139
increase in dead-cell fraction ([3]; 3.162 µM): 0.0169
increase in dead-cell fraction ([3]; 10 µM): 0.243
increase in dead-cell fraction ([4]; 0.0003162 µM): -0.0031
increase in dead-cell fraction ([4]; 0.001 µM): -0.0024
increase in dead-cell fraction ([4]; 0.003162 µM): -0.0097
increase in dead-cell fraction ([4]; 0.01 µM): 0.0037
increase in dead-cell fraction ([4]; 0.03162 µM): -0.0082
increase in dead-cell fraction ([4]; 0.1 µM): 0.0008
increase in dead-cell fraction ([4]; 0.3162 µM): 0.0036
increase in dead-cell fraction ([4]; 1 µM): 0.0415
increase in dead-cell fraction ([4]; 3.162 µM): 0.0395
increase in dead-cell fraction ([5]; 0.001 µM): 0.0052
increase in dead-cell fraction ([5]; 0.003162 µM): 0.0077
increase in dead-cell fraction ([5]; 0.01 µM): 0.0145
increase in dead-cell fraction ([5]; 0.03162 µM): 0.0159
increase in dead-cell fraction ([5]; 0.1 µM): 0.0213
increase in dead-cell fraction ([5]; 0.3162 µM): 0.0196
increase in dead-cell fraction ([5]; 1 µM): 0.0239
increase in dead-cell fraction ([5]; 3.162 µM): 0.0464
increase in dead-cell fraction ([5]; 10 µM): 0.006
increase in dead-cell fraction ([6]; 0.0001 µM): -0.0004
increase in dead-cell fraction ([6]; 0.0003162 µM): -0.0016
increase in dead-cell fraction ([6]; 0.001 µM): -0.0005
increase in dead-cell fraction ([6]; 0.003162 µM): -0.0011
increase in dead-cell fraction ([6]; 0.01 µM): 0.0056
increase in dead-cell fraction ([6]; 0.03162 µM): 0.0019
increase in dead-cell fraction ([6]; 0.1 µM): 0.0046
increase in dead-cell fraction ([6]; 0.3162 µM): 0.0223
increase in dead-cell fraction ([6]; 1 µM): 0.082
increase in dead-cell fraction ([7]; 0.0001 µM): -0.0051
increase in dead-cell fraction ([7]; 0.0003162 µM): -0.0051
increase in dead-cell fraction ([7]; 0.001 µM): -0.003
increase in dead-cell fraction ([7]; 0.003162 µM): 0.0428
increase in dead-cell fraction ([7]; 0.01 µM): 0.193
increase in dead-cell fraction ([7]; 0.03162 µM): 0.338
increase in dead-cell fraction ([7]; 0.1 µM): 0.269
increase in dead-cell fraction ([7]; 0.3162 µM): 0.106
increase in dead-cell fraction ([7]; 1 µM): 0.13
increase in dead-cell fraction ([8]; 0.0001 µM): -0.0012
increase in dead-cell fraction ([8]; 0.0003162 µM): 0.0006
increase in dead-cell fraction ([8]; 0.001 µM): 0.0192
increase in dead-cell fraction ([8]; 0.003162 µM): 0.0068
increase in dead-cell fraction ([8]; 0.01 µM): -0.0033
increase in dead-cell fraction ([8]; 0.03162 µM): 0.0143
increase in dead-cell fraction ([8]; 0.1 µM): 0.0893
increase in dead-cell fraction ([8]; 0.3162 µM): 0.636
increase in dead-cell fraction ([8]; 1 µM): 0.44
increase in dead-cell fraction ([9]; 0.0001 µM): 0.0034
increase in dead-cell fraction ([9]; 0.0003162 µM): 0.0047
increase in dead-cell fraction ([9]; 0.001 µM): -0.0024
increase in dead-cell fraction ([9]; 0.003162 µM): -0.0088
increase in dead-cell fraction ([9]; 0.01 µM): -0.0098
increase in dead-cell fraction ([9]; 0.03162 µM): 0.201
increase in dead-cell fraction ([9]; 0.1 µM): 0.449
increase in dead-cell fraction ([9]; 0.3162 µM): 0.477
increase in dead-cell fraction ([9]; 1 µM): 0.49
increase in dead-cell fraction ([10]; 0.0003162 µM): -0.0078
increase in dead-cell fraction ([10]; 0.001 µM): -0.0072
increase in dead-cell fraction ([10]; 0.003162 µM): -0.0095
increase in dead-cell fraction ([10]; 0.01 µM): 0.0012
increase in dead-cell fraction ([10]; 0.03162 µM): -0.0013
increase in dead-cell fraction ([10]; 0.1 µM): 0.0119
increase in dead-cell fraction ([10]; 0.3162 µM): 0.0131
increase in dead-cell fraction ([10]; 1 µM): 0.0095
increase in dead-cell fraction ([10]; 3.162 µM): 0.0058
GR50, 72 h [11]: 0.00558 µM
GR50, 72 h [12]: > 10 µM
GR50, 72 h [13]: 0.00573 µM
GR50, 72 h [14]: 0.303 µM
GR50, 72 h [15]: 0.528 µM
GR50, 72 h [16]: 0.0016 µM
